# Measured values published in patent publication US10576147B2, “Muramyl peptide derivative compound, synthesis and uses thereof” (BHARAT BIOTECH INTERNATIONAL LIMITED, priority 2015, dated 2020).
# Key:
# [1] = biological target: T1, human NOD2 (Homo sapiens, UniProt Q9HC29); test: NOD2 specific reporter assay (SEAP); type: cell-based
# T1 construct: host or cells: HEK 293 (HEK-Blue Human NOD2 reporter cells)
# Description: Muramyl dipeptide molecules have the ability to bind to NOD2 receptors that are present on […] the immune cells, so as to stimulate immune response. NOD2 (Nucleotide oligomerization domain) receptor is an intracellular pattern recognition receptor (PRRs) recognizes muramyl dipeptide derivatives and stimulates cascade of signalling pathways to induce immune response. […] These cells were prepared by co-transfection of human NOD2 gene and codon-optimized SEAP (secreted embryonic alkaline phosphatase) reporter gene into HEK 293 cells. Upon stimulation of cells with muramyl dipeptide derivative, NFkB gets activated, which intum secrets SEAP and it was measured in cell supernatant. Experimental details of this in-vitro assay are given as example 2.1.
# HEK—Blue Human NOD2 reporter cells (5×10^4/well) were plated and cultured overnight in a humidified CO2 incubator at 37° C. […] Supernatant was collected and treated with Quanti blue detection reagent at 37° C. for 15-30 min. Absorbance was read at 630 nm. Dose response curve generated by plotting concentration of adjuvant on X-axis and % response on the Y-axis is as shown in FIG. 1. To generate dose response curve, highest absorbance shown at tested concentration was taken as 100% response and the least absorbance was taken as 0% response. Effective concentration at 50% (EC50) response was determined from the dose response curve.
# [2] = test system: BALB/c mice; test: HBsAg specific total IgG endpoint titer (ELISA); type: in vivo
# Description: Female BALB/c mice (6-8 week old, n=6/group) were vaccinated intramuscularly (i.m, at two quadriceps) on Day 0 & Day 28 with vehicle control or Hepatitis B antigen (20 μg/mouse/dose/100 μl, 50 μl per quadricep) with and without MDP-MN (10 μg or 50 or 100 μg/mouse/dose/100 μl) diluted in Phosphate buffered saline. Prior to immunization, Hepatitis B surface antigen was mixed with MDP-MN, by gentle agitation (1:1 ratio), under sterile conditions. Mice were bled and euthanized on Day 42. Blood was collected & serum was isolated to evaluate analyze antigen specific total IgG antibody titer (as in example 3.1.2) and antibody subclasses (isotypes namely IgG1 or IgG2a or IgG3, as in example 3.1.3).
# Serial dilutions of individual serum samples ([…] ranging from 1:50 to 819200) were used to determine the endpoint titer of antigen specific total IgG antibody titer by ELISA. Details of assay protocol as described below.
# For analysis of antigen specific antibody titer, hepatitis B surface antigen was suspended in 50 mM carbonate bicarbonate buffer, pH 9.6 and coated at a concentration (1 μg/ml, 100 μl/well) in 96 well plates and kept at 4° C. for overnight. Next day, plates were washed with washing buffer (PBST-Phosphate buffered saline, pH 7.4 with 0.05% Tween) and blocked with blocking buffer (PBS with 1% BSA) at RT for 1-2 hr. ELISA plates were washed again with wash buffer (PBS, 0.05% Tween™20) and added serially diluted (in PBS, 0.1% BSA, 0.05% Tween™20, 0.02% sodium azide) sera from hyper immunized mice and incubated at RT for 1 hr. After incubation, wells were again washed and added Goat Anti-mouse IgG HRP conjugate antibody at a dilution of 1:5000 & incubated for 1 hr at RT. Later, wells were washed, and developed with OPD (O-phenylene diamine) as a substrate for 15 min. Reaction was stopped using 2N H2SO4. Absorbance was read at 490 nm. Threshold (Mean+3SD) was established by taking the absorbance of negative control (PBS) group, followed by the reactive index (ratio of absorbance at a particular dilution & threshold), so as to determine end point titer. […]
# [3] = test system: BALB/c mice; test: TH1:TH2 index from HBsAg specific IgG isotypes; type: in vivo
# Excerpt: It is known that, IgG subclasses produced after the immunization against given antigen, primarily determines the function of the antibody or indirectly measures the relative contribution of TH1 versus TH2 type cytokine induction. More specifically, production of IgG1 antibodies induces TH2 type cytokines, whereas, production of IgG2a & IgG3 antibodies induces TH1 type cytokines. […] In this context, in the present invention, we determined the levels of IgG isotypes (IgG1, IgG2a & IgG3), raised against HBsAg in the presence or absence of MDP-MN (at 10 & 50 μg/mouse) and calculated TH1: TH2 index then calculated as ([IgG2a+IgG3]/2)/(IgG1). Details of assay protocol as described below as in example 3.1.3. According to such calculation, an index value <1 stands for a TH2 polarization; an index value >1 stands for a TH1 polarization.
# Analysis of antigen specific IgG antibody subclasses (isotypes namely IgG1 or IgG2a or IgG3) was performed as mentioned in example 3.1.2, except at one step, where goat anti-mouse IgG1 or IgG2a or IgG3 HRP was used at a dilution of 1:5000 (in place of goat anti-mouse IgG) TH1:TH2 index obtained at 10 & 50 μg/mouse of MDP-MN is as shown in FIG. 5c.
# [4] = test system: Wistar rats; test: Maximum Tolerated Dose test; type: in vivo, rat
# Description: Wistar rats (n=6, 3M & 3F) were administered intramuscularly (i.m) with MDP-MN containing fixed adjuvant dose of 10, 50 and 100 μg/animal/200 μl in an ascending manner. Animals were observed daily for a period of 14 days for clinical signs & mortality. Body weight was measured daily. Food and water consumed by animals were also monitored daily for any abnormalities & Food and water intake per animal was also calculated. Body temperature was measured for every 4 hours upto 24 hrs, later once in daily upto 7 days and then followed by alternate day upto day 14. Rats were sacrificed on day 14 and organs/tissues such as site of injection, spleen, thymus, brain, lungs, Heart, liver, Kidney were collected and done macroscopic examination. […] It indicates rats are tolerable even at high dose (100 μg/animal). Blood was collected between 24-36 hrs were tested for CRP levels, after the injection. […] Moreover, absence of pro-inflammatory cytokines, CRP levels indicates, MDP-MN is not pyrogenic.
# T1 sequence (Q9HC29 whole entry): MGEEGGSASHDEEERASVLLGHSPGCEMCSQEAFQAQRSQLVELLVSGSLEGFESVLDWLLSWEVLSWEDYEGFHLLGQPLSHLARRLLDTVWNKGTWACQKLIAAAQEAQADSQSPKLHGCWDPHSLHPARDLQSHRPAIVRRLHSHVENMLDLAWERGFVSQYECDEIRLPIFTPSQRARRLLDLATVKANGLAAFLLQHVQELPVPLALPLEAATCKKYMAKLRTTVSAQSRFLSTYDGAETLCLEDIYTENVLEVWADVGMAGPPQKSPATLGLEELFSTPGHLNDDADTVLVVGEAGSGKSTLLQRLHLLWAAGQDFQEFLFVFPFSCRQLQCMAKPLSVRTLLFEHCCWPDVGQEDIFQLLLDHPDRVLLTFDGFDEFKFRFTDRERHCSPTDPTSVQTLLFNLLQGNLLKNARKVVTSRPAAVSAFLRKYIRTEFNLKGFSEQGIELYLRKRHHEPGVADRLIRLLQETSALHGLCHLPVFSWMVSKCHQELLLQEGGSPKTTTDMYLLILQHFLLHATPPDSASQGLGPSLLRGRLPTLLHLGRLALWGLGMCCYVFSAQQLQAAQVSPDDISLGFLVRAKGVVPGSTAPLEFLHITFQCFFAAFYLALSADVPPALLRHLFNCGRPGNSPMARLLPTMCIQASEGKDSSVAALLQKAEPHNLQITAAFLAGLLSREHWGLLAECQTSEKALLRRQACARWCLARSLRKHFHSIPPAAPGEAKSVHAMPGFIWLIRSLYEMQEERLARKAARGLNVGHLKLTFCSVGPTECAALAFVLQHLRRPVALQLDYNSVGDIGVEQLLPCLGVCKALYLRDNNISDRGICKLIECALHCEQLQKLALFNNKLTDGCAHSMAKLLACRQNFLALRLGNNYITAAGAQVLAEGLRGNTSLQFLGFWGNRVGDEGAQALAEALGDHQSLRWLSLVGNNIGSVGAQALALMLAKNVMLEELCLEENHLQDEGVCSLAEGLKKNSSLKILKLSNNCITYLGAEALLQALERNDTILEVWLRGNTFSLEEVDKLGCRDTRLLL
structure (smiles),measurement,setting,value
"C[C@H](NC(=O)[C@@H](C)O[C@H]1[C@H](O)[C@@H](CO)OC(O)[C@@H]1NC(=O)[C@H](O)CO)C(=O)N[C@H](CCC(=O)O)C(N)=O (stereo partly drawn) [MDP-MN, (4R)-5-amino-4-((2S)-2-((2R)-2-(((3R,4R,5S,6R)-3-((2,3-dihydroxypropanamido))-2,5-dihydroxy-6-(hydroxymethyl)tetrahydro-2H-pyran-4-yl)oxy)propanamido)propanamido)-5-oxopentanoic acid]",EC50,"[1]; HEK-Blue Human NOD2 reporter cells, SEAP absorbance 630 nm, 24-72 hrs, read-out: EC50 (half maximal response) (converted)",2490 nM
same,% response,"[1]; at 0.01 μg/ml, normalized to least absorbance",0%
same,% response,"[1]; at 10 μg/ml (plateau), normalized to highest absorbance",100%
same,increase of antibody titer vs HBsAg alone,[2]; MDP-MN 50 μg/mouse,4 fold
same,increase of antibody titer vs HBsAg alone,[2]; MDP-MN 100 μg/mouse,8 fold
same,increase of humoral response (TH2),"[2]; mice vaccinated with Hepatitis B surface antigen in presence of MDP-MN, dose dependent",4-8 fold
same,TH1:TH2 index ([IgG2a+IgG3]/2)/(IgG1),[3]; HBsAg in the presence of MDP-MN (10 & 50 μg/mouse),2.5
same,TH1 type cytokines induction,[3]; mice vaccinated with Hepatitis B surface antigen in presence of MDP-MN,induced TH1 type cytokines
same,tolerated dose,"[4]; Wistar rats, i.m., 14 days observation, highest dose tested",100 μg/animal
same,CRP levels,"[4]; blood 24-36 hrs after injection, high dose (100 μg/animal), normal in rats 200-550 μg/ml",normal
same,macroscopic examination of organs/tissues,"[4]; day 14, site of injection, spleen, thymus, brain, lungs, heart, liver, kidney",No significant lesions or abnormalities
same,clinical signs,"[4]; even at tested high dose (100 μg/animal), 14 days",no significant clinical signs
same,weight gain,"[4]; high dose (100 μg/animal), compared to untreated animals",weight gain is less
same,mortality,"[4]; i.m. 10, 50 and 100 μg/animal, 14 days",no mortality
same,tolerated dose,"[4]; rat, Maximum Tolerated Dose test",≤ 100 μg/rat
same,pyrogenicity (conclusion from cytokines and CRP levels),"[4]; rat, in vivo",not pyrogenic
same,body temperature,[4]; upto 14 days,no temperature raise
